Assay results from article PMC7554656 (Molecular Metabolism, 2020).

Target: T1, SGLT2 (sodium-glucose cotransporter 2) (Homo sapiens, UniProt P31639)
T1 sequence (P31639 1-672): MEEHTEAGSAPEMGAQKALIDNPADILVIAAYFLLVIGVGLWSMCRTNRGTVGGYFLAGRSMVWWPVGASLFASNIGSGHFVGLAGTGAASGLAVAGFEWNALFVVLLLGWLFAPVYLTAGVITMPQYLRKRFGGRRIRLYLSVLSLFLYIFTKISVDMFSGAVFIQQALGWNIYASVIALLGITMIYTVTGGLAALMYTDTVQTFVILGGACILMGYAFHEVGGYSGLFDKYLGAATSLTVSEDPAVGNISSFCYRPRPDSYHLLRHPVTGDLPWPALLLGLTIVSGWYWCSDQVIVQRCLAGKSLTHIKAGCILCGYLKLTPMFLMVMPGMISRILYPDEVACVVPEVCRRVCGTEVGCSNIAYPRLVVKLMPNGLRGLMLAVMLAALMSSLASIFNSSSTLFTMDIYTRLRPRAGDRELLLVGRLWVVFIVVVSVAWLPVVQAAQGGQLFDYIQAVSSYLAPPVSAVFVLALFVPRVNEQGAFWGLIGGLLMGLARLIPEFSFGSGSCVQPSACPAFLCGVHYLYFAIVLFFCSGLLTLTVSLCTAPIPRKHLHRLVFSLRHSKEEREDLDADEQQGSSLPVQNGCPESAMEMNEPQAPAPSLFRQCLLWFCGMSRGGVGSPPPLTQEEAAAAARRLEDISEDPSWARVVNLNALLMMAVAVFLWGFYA
Assay: inhibition of […]-alpha-methyl-D-glucopyranoside uptake in HEK293-hSGLT2 cells
Format: cell-based

EC50: 4.3 nM
SMILES: OC[C@H]1O[C@@H](c2ccc(Cl)c(Cc3ccc(O[C@H]4CCOC4)cc3)c2)[C@H](O)[C@@H](O)[C@@H]1O [empagliflozin]
